Results as given in PubChem BioAssay (NCI).
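1) Cells in 96-well plates. 2) Compound, 48 h, 5 concentrations. 3) Linear interpolation between surrounding doses. 4) Unreached endpoint = highest concentration. GI50 marks 50% less growth. At the TGI there is no net growth.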

Columns and labels:
Assay in all cases: growth of human tumour cells (NCI), 48 h
[1] = tested on: OVCAR-3 ovarian
[2] = tested on: HOP-92 NSCLC
[3] = tested on: RPMI-8226 leukemia
[4] = tested on: K-562 leukemia
[5] = tested on: SK-MEL-28 melanoma
[6] = tested on: PC-3 prostate
[7] = tested on: DU-145 prostate
[8] = tested on: SF-539 CNS
[9] = tested on: IGROV1 ovarian
[10] = tested on: COLO 205 colon
[11] = tested on: HT29 colon
[12] = tested on: UO-31 renal
[13] = tested on: OVCAR-5 ovarian
[14] = tested on: HL-60(TB) leukemia
[15] = tested on: SNB-75 CNS
[16] = tested on: MOLT-4 leukemia
[17] = tested on: A498 renal
[18] = tested on: CAKI-1 renal
[19] = tested on: MDA-MB-435
[20] = tested on: A549 NSCLC
[21] = tested on: HOP-62 NSCLC
[22] = tested on: SK-MEL-5 melanoma
[23] = tested on: HCT-116 colon
[24] = tested on: NCI-H226 lung
[25] = tested on: T-47D breast
[26] = tested on: SK-OV-3 ovarian
[27] = tested on: TK-10 renal
[28] = tested on: NCI-H460 lung
[29] = tested on: UACC-62 melanoma
[30] = tested on: UACC-257 melanoma
[31] = tested on: CCRF-CEM leukemia
[32] = tested on: HS 578T breast
[33] = tested on: RXF 393 renal
[34] = tested on: SW-620 colon
[35] = tested on: MDA-MB-231 breast
[36] = tested on: MDA-MB-468 breast
[37] = tested on: LOX IMVI melanoma
[38] = tested on: U251 CNS
[39] = tested on: ACHN renal
[40] = tested on: MCF7 breast
[41] = tested on: SF-295 CNS
[42] = tested on: SN12C renal
[43] = tested on: M14 melanoma
[44] = tested on: NCI-H23 lung
[45] = tested on: BT-549 breast
[46] = tested on: HCC-2998 colon
[47] = tested on: EKVX NSCLC
[48] = tested on: HCT-15 colon
[49] = tested on: OVCAR-4 ovarian
[50] = tested on: MALME-3M melanoma
[51] = tested on: 786-0 renal
[52] = tested on: SNB-19 CNS
[53] = tested on: SR leukemia
[54] = tested on: SK-MEL-2 melanoma
[55] = tested on: KM12 colon
[56] = tested on: SF-268 CNS
[57] = tested on: NCI-H522 lung

In the case of `CNC(=O)c1cc(Oc2ccc3nc(NC(=O)Nc4cccc(OC(F)(F)F)c4)sc3c2)ccn1`, the GI50 [1] is reported as 3.27 µM, the TGI [1] is reported as > 100 µM and the GI50 [2] is reported as 1.66 µM. For the same compound, the TGI [2] was 4.46 µM, the GI50 [3] was > 100 µM and the TGI [3] was > 100 µM. For the same compound, the GI50 [4] was 5.51 µM, the TGI [4] was > 100 µM and the GI50 [5] was 2.66 µM. For the same compound, the TGI [5] was > 100 µM, the GI50 [6] was 2.22 µM and the TGI [6] was > 100 µM. The GI50 [7] was 3.64 µM, the TGI [7] was > 100 µM and the GI50 [8] was 3.07 µM. It also gave a TGI [8] of 10.2 µM, a GI50 [9] of 4.65 µM and a TGI [9] of 21.6 µM. The GI50 [10] was 5.43 µM, the TGI [10] was > 100 µM and the GI50 [11] was 7.9 µM. The TGI [11] was > 100 µM, the GI50 [12] was 3.93 µM and the TGI [12] was > 100 µM. The GI50 [13] was 5.58 µM, the TGI [13] was > 100 µM and the GI50 [14] was > 100 µM. For the same compound, the TGI [14] was > 100 µM, the GI50 [15] was 2.34 µM and the TGI [15] was 5.52 µM. The GI50 [16] was > 100 µM, the TGI [16] was > 100 µM and the GI50 [17] was 4.25 µM. For the same compound, the TGI [17] was 9.77 µM, the GI50 [18] was 2.01 µM and the TGI [18] was 4.72 µM. The GI50 [19] was 4.27 µM, the TGI [19] was > 100 µM and the GI50 [20] was 2.69 µM. For the same compound, the TGI [20] was > 100 µM, the GI50 [21] was 1.72 µM and the TGI [21] was 3.47 µM. The GI50 [22] was 3.08 µM, the TGI [22] was > 100 µM and the GI50 [23] was 4.67 µM. The TGI [23] was > 100 µM, the GI50 [24] was 2.56 µM and the TGI [24] was 6.14 µM. The GI50 [25] was 5.08 µM, the TGI [25] was > 100 µM and the GI50 [26] was 3 µM. The TGI [26] was 6.83 µM, the GI50 [27] was 4.09 µM and the TGI [27] was 13.2 µM. The GI50 [28] was 2.58 µM, the TGI [28] was > 100 µM and the GI50 [29] was 2.07 µM. The TGI [29] was 13.3 µM, the GI50 [30] was 5.89 µM and the TGI [30] was > 100 µM. The GI50 [31] was 9.07 µM, the TGI [31] was > 100 µM and the GI50 [32] was 2.29 µM. For the same compound, the TGI [32] was 7.09 µM, the GI50 [33] was 1.91 µM and the TGI [33] was 4.82 µM. The GI50 [34] was 4.94 µM, the TGI [34] was > 100 µM and the GI50 [35] was 2.37 µM. The TGI [35] was 10.9 µM, the GI50 [36] was 2.16 µM and the TGI [36] was 13.5 µM. For the same compound, the GI50 [37] was 4.15 µM, the TGI [37] was 23.6 µM and the GI50 [38] was 2.43 µM. It also gave a TGI [38] of 6.27 µM, a GI50 [39] of 2.32 µM and a TGI [39] of 7.26 µM. The GI50 [40] was 8.31 µM, the TGI [40] was > 100 µM and the GI50 [41] was 1.7 µM. The TGI [41] was 4.17 µM, the GI50 [42] was 5.11 µM and the TGI [42] was > 100 µM. The GI50 [43] was 5.76 µM, the TGI [43] was > 100 µM and the GI50 [44] was 2.91 µM. For the same compound, the TGI [44] was 11.9 µM, the GI50 [45] was 3.21 µM and the TGI [45] was 9.02 µM. The GI50 [46] was 8.69 µM, the TGI [46] was > 100 µM and the GI50 [47] was 3.56 µM. For the same compound, the TGI [47] was > 100 µM, the GI50 [48] was 4.07 µM and the TGI [48] was > 100 µM. For the same compound, the GI50 [49] was 2.97 µM, the TGI [49] was 9.23 µM and the GI50 [50] was 1.82 µM. For the same compound, the TGI [50] was 5.3 µM, the GI50 [51] was 2.71 µM and the TGI [51] was 7.41 µM. The GI50 [52] was 2.22 µM, the TGI [52] was 5.55 µM and the GI50 [53] was > 100 µM. The TGI [53] was > 100 µM, the GI50 [54] was 2.51 µM and the TGI [54] was 8.12 µM. The GI50 [55] was 0.809 µM, the TGI [55] was > 100 µM and the GI50 [56] was 4.3 µM. For the same compound, the TGI [56] was 89 µM, the GI50 [57] was 3.5 µM and the TGI [57] was > 100 µM.
